Test results taken from PubChem BioAssay AID1259332 (Broad Institute, 2017).
Where “and” joins values, the source holds several entries; their conditions need not be identical. Equal values may be shown once. Calls of active or inactive are those of the source. The rule behind the calls is not given here.

These compounds were tested on B cell line, CD40 signaling inhibition reporter (assay: inhibitors of CD40 signaling, dose response, B cell lineage (AID 1259332);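 note: cells stimulated with CD40 ligand tCD40L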).
For C[C@@H]1CN([C@@H](C)CO)C(=O)c2c(c3ccccc3n2C)-c2ccccc2CO[C@@H]1CN(C)C(=O)Nc1ccccc1C(F)(F)F, the AC50 was 9.94 µM. Compound CC1(C)C(=O)C=C[C@@]2(C)C1C[C@@H](O)[C@]1(C)C2CC[C@@]2(C)[C@H](c3ccoc3)OC(=O)[C@H]3O[C@]321 (some centres not stated) has an AC50 of 7.18 µM. CC1CNCCN1S(=O)(=O)c1cccc2cnccc12 (configuration not stated) was tested, and the AC50 was 9.01 µM. For CCc1csc(N2[C@H](C#N)[C@H](c3ccc(C#Cc4ccc(F)cc4)cc3)[C@H]2CO)n1, the AC50 was > 20 µM (inactive). Compound CCC1=C(CC2NCCc3ccccc32)CC2c3cc(OC)c(OC)cc3CCN2C1 (configuration not stated) has an AC50 of 1.75 µM. For C[C@@H]1CN([C@H](C)CO)C(=O)c2ccccc2-c2ccccc2CO[C@@H]1CN(C)Cc1ccccc1C(F)(F)F, the AC50 was 9.99 µM. In the case of CC(C)(C)CC(C)(C)c1ccc(OCCOCC[N+](C)(C)Cc2ccccc2)cc1, the AC50 is reported as 1.62 µM. With C[C@@H]1CN([C@@H](C)CO)C(=O)c2ccccc2-c2ccccc2CO[C@@H]1CN(C)Cc1ccc(Oc2ccccc2)cc1 the AC50 was > 20 µM (inactive). Compound Cc1cc(C(=O)COC(=O)CNC(=O)c2ccccc2)c(C)n1CC1CCCO1 (configuration not stated) has an AC50 of 2.32 µM. Compound COc1ccc(CN(CCC(c2ccccc2)c2ccc(OC(C)C)cc2)C(=O)CCl)cc1OC (configuration not stated) has an AC50 of 1.68 µM. Work on CO[C@H](CN(C)Cc1cc(F)ccc1F)[C@H](C)CN(C(=O)Nc1ccc(C(F)(F)F)cc1)[C@H](C)CO yielded an AC50 of 8.88 µM. With N#C[C@H]1[C@H](c2ccc(C#Cc3ccccc3F)cc2)[C@@H](CO)N1C(=O)C1CC1 the AC50 was > 20 µM (inactive). CCCC(=O)NC1=C(Cl)C(=O)c2ccccc2C1=O gave an AC50 of 0.935 µM. With CCN(CC)CCCNc1nc2ccccc2c2[nH]c3ccc(OC)cc3c12 the AC50 was 1.1 µM. C[C@@H]1CN([C@@H](C)CO)C(=O)c2c(c3ccccc3n2C)-c2ccccc2CO[C@H]1CN(C)C(=O)Nc1cccc(C(F)(F)F)c1 gave an AC50 of 9.25 µM. CC1=C(C#N)c2nc(N)c(C#N)c(C)c2/C1=C\c1ccccc1 showed an AC50 of 4.41 µM. In the case of COc1ccc2c3c([nH]c2c1)[C@H](CO)N(C(=O)Nc1ccc(F)cc1)CC31CN(Cc2cc(F)ccc2F)C1, the AC50 is reported as > 20 µM (inactive). Compound Clc1ccc(C(Cn2ccnc2)OCc2ccsc2Cl)c(Cl)c1 (configuration not stated) has an AC50 of 6.04 µM. With COC(=O)c1ccccc1-c1c2ccc(=N)cc-2oc2cc(N)ccc12 the AC50 was 10.9 µM. CC(C)CC#Cc1ccc([C@@H]2[C@H]3CN(C(=O)Nc4ccccc4)CCCCN3[C@H]2CO)cc1 was tested, and the AC50 was 9.52 µM. For C=C1C(=O)OC2CC1C(O)CC(C)=CCCC(C)=CC(O)CC2C (configuration not stated), the AC50 was 6 µM. For C[C@H]1CN([C@@H](C)CO)C(=O)c2ccccc2-c2ccccc2CO[C@H]1CN(C)C(=O)[C@@H](Cc1ccccc1)N(C)C, the AC50 was > 20 µM (inactive). Compound Cc1noc(C)c1S(=O)(=O)N(C)C[C@@H]1OCc2ccccc2-c2c(n(C)c3ccccc23)C(=O)N([C@@H](C)CO)C[C@@H]1C has an AC50 of 11.3 µM. In the case of COc1ccc(C[C@H]2NC[C@H](O)[C@H]2OC(C)=O)cc1, the AC50 is reported as 0.0235 µM. For O=C(c1ccc(Nc2nccc(-c3cc4ccccc4s3)n2)cc1)N1CCC(N2CCCC2)CC1, the AC50 was 1.07 µM and 0.541 µM. Work on Cc1ccsc1C(=O)OCC(=O)c1cc(C)n(CC2CCCO2)c1C (configuration not stated) yielded an AC50 of 0.124 µM. For Cc1ccc(S(=O)(=O)CCC(=O)N(CCCN2CCOCC2)c2nc3ccccc3s2)cc1, the AC50 was 8.01 µM. In the case of C[C@H]1O[C@@H](O[C@H]2[C@@H](O)C[C@H](O[C@H]3[C@@H](O)C[C@H](O[C@H]4CC[C@]5(C)C6C[C@@H](O)[C@]7(C)[C@@H](C8=CC(=O)OC8)CC[C@]7(O)C6CC[C@@H]5C4)O[C@@H]3C)O[C@@H]2C)C[C@H](O)[C@@H]1O (some centres not stated), the AC50 is reported as 2.59 µM. In the case of O=C(C1CCCC1)N1CC(=O)N2[C@@H](CO)[C@@H](c3ccc(C#CCc4ccccc4)cc3)[C@@H]2C1, the AC50 is reported as 1.95 µM. N#C[C@@H]1[C@H](c2ccc(C#Cc3ccccc3F)cc2)[C@@H](CO)N1C(=O)c1cccnc1 showed an AC50 of 4.37 µM. For C[C@H](CO)N1C[C@H](C)[C@H](CN(C)C(=O)Nc2cccc(Cl)c2Cl)OCc2ccccc2-c2c(n(C)c3ccccc23)C1=O, the AC50 was 5.24 µM. With Fc1ccccc1CNCCC(Cc1ccccc1)c1ccc2c(c1)OCO2 (configuration not stated) the AC50 was 5.98 µM. Compound CCCNC(=O)N1[C@@H](C#N)[C@H](c2ccc(-c3cccc(OC)c3)cc2)[C@@H]1CO has an AC50 of 11 µM. Compound O=C(Cc1ccccc1)N1CC[C@@H]2[C@H]1c1cc(-c3cccc(F)c3)ccc1N[C@@H]2CO has an AC50 of 1.89 µM. COc1cccc(S(=O)(=O)N(C)C[C@H]2OCc3ccccc3-c3c(n(C)c4ccccc34)C(=O)N([C@H](C)CO)C[C@@H]2C)c1 was tested, and the AC50 was > 7 µM (inactive). In the case of O=C(Nc1ccccc1)N1CC(=O)N2[C@H](CO)[C@@H](c3ccc(C#CC4CCCCC4)cc3)[C@H]2C1, the AC50 is reported as 11 µM. CC(=O)O[C@H]1C[C@H](O[C@H]2[C@@H](O)C[C@H](O[C@H]3[C@@H](O)C[C@H](O[C@H]4CC[C@@]5(C)C(CCC6C5C[C@@H](O)[C@]5(C)[C@@H](C7=CC(=O)OC7)CC[C@]65O)C4)O[C@@H]3C)O[C@@H]2C)O[C@H](C)[C@H]1O[C@@H]1O[C@H](CO)[C@@H](O)[C@H](O)[C@H]1O (some centres not stated) gave an AC50 of 0.909 µM. With CCCNC(=O)N1[C@H](C#N)[C@H](c2ccc(C#Cc3cccc(F)c3)cc2)[C@H]1CO the AC50 was 5.57 µM. For COC(=O)c1ccc2nc(NC(=O)C(C)(C)C)sc2c1, the AC50 was 1.9 µM. In the case of C[C@H]1CN([C@@H](C)CO)C(=O)c2c(c3ccccc3n2C)-c2ccccc2CO[C@@H]1CN(C)S(=O)(=O)c1ccc([N+](=O)[O-])cc1, the AC50 is reported as > 20 µM (inactive). With c1cc(-c2cnn3cc(-c4ccc(OCCN5CCCCC5)cc4)cnc23)ccn1 the AC50 was 2.7 µM. C[C@@H]1C[C@@H]([C@H](O)CC2CC(=O)NC(=O)C2)C(=O)[C@@H](C)C1 gave an AC50 of 0.393 µM. Compound C[C@@H]1CCCCO[C@H](CN(C)CC2CCCCC2)[C@H](C)CN([C@@H](C)CO)C(=O)c2cc(NC(=O)Nc3ccc(C(F)(F)F)cc3)ccc2O1 has an AC50 of 8.6 µM. Cc1noc(C)c1S(=O)(=O)Nc1ccc2c(c1)C(=O)N([C@@H](C)CO)C[C@@H](C)[C@@H](CN(C)C(=O)Nc1cccc3ccccc13)OCCCC[C@H](C)O2 was tested, and the AC50 was 1.52 µM. With Cc1ccc(S(=O)(=O)N2CCCC2CNC(=O)c2ccc3c(c2)OCO3)cc1 (configuration not stated) the AC50 was 3.91 µM. In the case of O=C(COc1cccnc1[N+](=O)[O-])c1ccc(Cl)s1, the AC50 is reported as 3.2 µM. NC(c1ccccc1)c1csc(NC(=O)Nc2cccc(C(F)(F)F)c2)n1 (configuration not stated) showed an AC50 of 6.03 µM. With CC(=O)OC1CCC2(C)C(CCC3C4CC=C(C(C)=O)C4(C)OC(=O)CC32)C1 (configuration not stated) the AC50 was 2.3 µM. Cn1cnc(S(=O)(=O)N2C[C@@H]3N[C@H](C2)C3c2ccc(-c3ccccc3F)cc2)c1 (some centres not stated) gave an AC50 of 11 µM. With Cc1cc(C(=O)COC(=O)c2ccco2)c(C)n1Cc1ccco1 the AC50 was 0.11 µM. With O=C1NC2c3c(I)sc(I)c3C(=O)C2O1 (configuration not stated) the AC50 was 3.2 µM. C[C@@H]1CN([C@H](C)CO)C(=O)c2cc(NC(=O)Nc3cccc4ccccc34)ccc2O[C@@H](C)CCCCO[C@H]1CN(C)Cc1ccc(C(F)(F)F)cc1 gave an AC50 of 1.91 µM. CC(=O)OC1CC2(O)C3CCC4CC(O)CCC4(C)C3CCC2(C)C1C1=CC(=O)OC1 (configuration not stated) gave an AC50 of 1.12 µM. COc1ccc(-c2cc(-c3ccccc3)c(C#N)c(S(C)=O)n2)cc1 (configuration not stated) gave an AC50 of 2.55 µM. CCCCCCCCCCCCCCCC[n+]1ccccc1 showed an AC50 of 0.266 µM. O=C(c1ccc(F)cc1)N1C[C@@H]2N[C@H](C1)C2c1ccc(/C=C/c2ccccc2)cc1 (some centres not stated) showed an AC50 of 4.68 µM. Work on N#C[C@H]1N[C@H](CO)[C@H]1c1ccc(C#CC2CCCC2)cc1 yielded an AC50 of 6.27 µM. For CCS(=O)(=O)N1Cc2ccccc2CC1C(=O)Nc1nc2ccccc2s1 (configuration not stated), the AC50 was 10.9 µM. With Cc1ccc2nc(C(F)(F)F)c(C#N)c(N)c2c1 the AC50 was 6.7 µM. Cc1ccccc1C(=O)N1CCC(C(=O)Nc2nc3ccc(F)cc3s2)CC1 was tested, and the AC50 was 8.19 µM. In the case of c1ccc(-c2nnc(-c3ccccn3)nn2)nc1, the AC50 is reported as 10.5 µM. C[C@@H]1CCCCO[C@H](CN(C)Cc2ccc(C(F)(F)F)cc2)[C@@H](C)CN([C@@H](C)CO)C(=O)c2cc(NC(=O)Nc3cccc4ccccc34)ccc2O1 was tested, and the AC50 was > 20 µM (inactive). In the case of C[n+]1c2n(c3ccccc31)N=C(c1ccc(-c3ccccc3)cc1)CS2, the AC50 is reported as 1.21 µM. Cc1ccc(OCCn2cnc3c(N)ncnc32)cc1 was tested, and the AC50 was 0.649 µM. CCCCNC(=O)C1(C)CCN1C(=O)c1cc(-c2cccs2)oc1C (configuration not stated) showed an AC50 of 3.11 µM. COc1ccc2cc(-c3cc(C(=O)O)c4ccccc4n3)ccc2c1 gave an AC50 of 6.11 µM. c1ccc2nc(-c3nc4ccccc4o3)ccc2c1 was tested, and the AC50 was 4.54 µM. C[C@H](CO)N1C[C@H](C)[C@H](CN(C)S(=O)(=O)c2ccc([N+](=O)[O-])cc2)OCc2ccccc2-c2c(n(C)c3ccccc23)C1=O showed an AC50 of 9.57 µM. CC1OC(CC(=O)O)CC2=C1C(=O)c1c(O)cccc1C2=O (configuration not stated) gave an AC50 of 0.204 µM. Cc1noc(C)c1S(=O)(=O)N(C)C[C@H]1OCc2ccccc2-c2c(n(C)c3ccccc23)C(=O)N([C@@H](C)CO)C[C@H]1C showed an AC50 of 11.2 µM. O=C1C=CC(=O)c2c(O)c(N3CCN(CCOCCO)CC3)c(Br)c(O)c21 gave an AC50 of 1.91 µM. For CC(C)Cc1ccc(C(C)CC2=CCC(CN(C)C)C2=O)cc1 (configuration not stated), the AC50 was 3.99 µM. For CC(=O)Nc1ccc(Sc2ccc([N+](=O)[O-])o2)cc1, the AC50 was 1.99 µM. CC1CCOC(=O)C=CC=CC(=O)OC2CC3OC4C5OC5(C)C(O)CC4(COC(=O)C1O)C2(C)C31CO1 (configuration not stated) gave an AC50 of 0.0446 µM. COc1ccc(C#Cc2ccc([C@H]3[C@H]4CN(C(=O)c5ccncc5)CCCCN4[C@H]3CO)cc2)cc1 showed an AC50 of 11.2 µM. N#Cc1cccc(-c2ccc(C3[C@H]4CNC[C@@H]3N4Cc3ccc4c(c3)OCO4)cc2)c1 (some centres not stated) was tested, and the AC50 was > 20 µM (inactive). COc1cccc(NC(=O)N2CC(=O)N3[C@H](CO)[C@@H](c4ccc(C#CCC5CCCC5)cc4)[C@H]3C2)c1 was tested, and the AC50 was > 7 µM (inactive). With CCN(CC)C(=O)c1ccc(NC(=O)Nc2ccccc2F)cc1 the AC50 was 2.35 µM. Work on CC1=CC(C)(C)N=C(Nc2nc(C)c3cc(C)cc(C)c3n2)N1 yielded an AC50 of 3.85 µM. For O=C1/C(=C/c2ccccc2)C[C@@]2(O)C3Cc4ccc(O)c5c4[C@@]2(CCN3CC2CC2)[C@H]1O5, the AC50 was 1.75 µM. In the case of CC1(C)C(=O)C=C[C@@]2(C)C1C=C[C@]1(C)C2CC[C@@]2(C)[C@H](c3ccoc3)OC(=O)[C@H]3O[C@]321 (some centres not stated), the AC50 is reported as 5.24 µM. With C[C@@H]1O[C@@H](O[C@H]2C[C@@H](O)[C@]3(CO)[C@H]4[C@H](O)C[C@]5(C)[C@@H](C6COC(=O)C6)CC[C@]5(O)[C@@H]4CC[C@]3(O)C2)[C@H](O)[C@H](O)[C@H]1O (some centres not stated) the AC50 was 2.55 µM. CC(C)=CCc1c2c(c3occ(-c4ccc(O)c(O)c4)c(=O)c3c1O)C=CC(C)(C)O2 gave an AC50 of 4.31 µM. Work on Nc1nc(=O)c2ccccc2s1 yielded an AC50 of 8.69 µM. Work on Cc1c(CCOC(=O)CC23CC4CC(CC(C)(C4)C2)C3)sc[n+]1CC(=O)c1ccccc1 yielded an AC50 of 3.22 µM. Compound CC1CCCC=CC2CC(OC(=O)CN(C)C)CC2C(O)C=CC(=O)O1 (configuration not stated) has an AC50 of 1.77 µM. Cc1ccnc(NC(=O)c2ccc(OCC3CCCO3)cc2)c1 (configuration not stated) was tested, and the AC50 was 5.23 µM.
